Reference: patent US11813304B2, “Compounds and methods for inhibiting phosphate transport” (Ardelyx, Inc., priority 2013, dated 2023)

Tested on: HEK-293 cells
Test: Sodium-dependent 33P phosphate uptake in HEK-293 cells (mock, rat or human NaP2b transfected)
Format: cell-based
Conditions: 5 μM EIPA; cells not pretreated to lower their intracellular pH; 23 min at room temperature
Procedure: Experiments were performed to test the relationship between alterations in intracellular pH and the uptake of phosphate ions (Pi) in human embryonic kidney cells (HEK-293 cells).
HEK-293 cells were seeded into 96-well plates at 25,000 cells/well and cultured overnight. Cells were then transfected with either rat or human NaP2b cDNA, or were mock transfected (no DNA) using Lipofectamine 2000 (Invitrogen). Cells were allowed to approach confluence during a second overnight incubation.
An ammonium pulse procedure was used to reduce the intracellular pH from ˜7.4 to ˜6.8. Medium was aspirated from the wells, cells were washed twice with NaCl-HEPES buffer (100 mM NaCl, 50 mM HEPES, 10 mM glucose, 5 mM KCl, 2 mM CaCl2, 1 mM MgCl2, pH 7.4), then incubated for 30 min at room temperature with NH4Cl-HEPES buffer (20 mM NH4Cl, 80 mM NaCl, 50 mM HEPES, 5 mM KCl, 2 mM CaCl2, 1 mM MgCl2, pH 7.4) containing 5 μM BCECF-AM. […] The reduction in intracellular pH to approximately pH 6.8 was verified by monitoring the pH sensitive changes in BCECF fluorescence (λex 505 nm, λem 538 nm) normalized to the pH insensitive BCECF fluorescence (λex 439 nm, λem 538 nm). […]
Uptake of ^33P was measured in the presence and absence of 5 μM EIPA, a specific inhibitor of NHE1. […] Cells were lysed by addition of 20 μL 0.1% Tween 80 followed by 100 μL scintillation fluid, and counted using a TopCount (Perkin Elmer).

CCN(c1nc(N)c(C(=O)NC(=N)N)nc1Cl)C(C)C [EIPA]
Pi uptake (33P): small yet significant decrease
